Experimental data as given in paper PMC10816046, “The Interaction and Effect of a Small MitoBlock Library as Inhibitor of ALR Protein–Protein Interaction Pathway” (International Journal of Molecular Sciences, 2024).

How the values were obtained:
ALR (SF-ALR) [1] = target: T1, ALR (SF-ALR) (Homo sapiens, UniProt P55789); test: 1H-15N HSQC NMR titration (slow exchange); format: binding
T1 construct: gene GFER; SF-ALR, residues 81–205

ALR (SF-ALR) [2] = target: T1, ALR (SF-ALR); test: 1H-15N HSQC NMR titration of […] SF-ALR (slow exchange); IC50 from Amplex Red-HRP assay with pure enzyme; format: biochemical

T1 sequence (P55789 81-205): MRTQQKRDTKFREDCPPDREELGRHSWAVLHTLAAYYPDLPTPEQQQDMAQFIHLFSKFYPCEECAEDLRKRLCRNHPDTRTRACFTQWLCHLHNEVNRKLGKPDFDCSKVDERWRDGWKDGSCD

IC50 (ALR (SF-ALR) [2]) [µM] | Compound | 1H-15N HSQC NMR titration (slow exchange) (ALR (SF-ALR) [1])
 | CN(c1ccc(C2=NN=C(NC3CC3)SC2)cc1)S(C)(=O)=O [MB-7] | perturbation on the HN signals in the 2D NMR spectra (ES-1, MB-5, MB-7, MB-8, and MB-13)
9.02 | CC(=O)Nc1cccc(-c2csc(Nc3ccc(C)cn3)n2)c1 [MB-8] | 
10.7 | Nc1ccc(N2CCN(C(=O)c3ccco3)CC2)cc1 [MB-13] | 
